From patent publication US6518012B1, “Method for regulating the expression of MHC antigens and CD40 by inhibitors of histone deacetylation” (Health Research, Inc., priority 1999, dated 2003)

Experiments:
[1] = tested on: MHC class II protein on the cell surface; assay: Cell surface MHC class II protein by flow cytometry on Colon 26 and J558; assay type: cell-based, mouse; conditions: J558; G2/M arrest experiment with nocodazole; data not shown
Description: To determine the effect of TSA on cell surface protein expression, the J558 cell line was subjected to flow cytometric analyses as follows. Flow cytometric analyses were conducted by standard methods using cells fixed with 1.0% paraformaldehyde and analyzed on the FACScan (Becton Dickinson). Cell cycle analyses were carried out by flow cytometry with PI staining of genomic DNA. Cells were fixed and permeablized in methanol, treated with RNaseA and analyzed for DNA content by determination of FL3-area on the FACScan. The FL3-area data were analyzed with the ModFit software for determination of the percent cells in each phase of the cell cycle. In some cases, fluorescein isothiocyanate (FITC)-conjugated antibody staining was conducted prior to PI treatment and surface staining was analyzed as a function of cell cycle phase. Apoptosis was analyzed by staining with annexin-V directly conjugated with either FITC or RPE and by sub-G0 analysis of DNA staining. Expression levels without treatment are shown as shaded peaks, IFNγ treated cell expression is plotted by a thin line while the level of expression on TSA treated cells is represented by a heavy line. Isotype controls were analyzed and, in each case, fell on or below the levels shown for control cells. MC and Colon 26 treatments are shown for 50 nM TSA for 48 hours, while J558 treatment is for 25 nM TSA for 24 hours. All IFNγ treatments were 100 U/ml for the same length of time as the corresponding TSA treatment. The percent of cells staining positive for MHC class II or CD40 expression is indicated below each histogram. Since all cells were positive for MHC class I expression, the number under the histogram represents -fold change of expression calculated from the mean channel-shift after treatment relative to untreated cells. Data are representative of at least three independent experiments. Of the 13 markers analyzed on J558 cells, only class I, II and CD40 were enhanced, while levels of several non-expressed antigens were not elicited (including CD25, B7 integrin, CD40L, H2K^k and IA^k) while other markers, which were expressed, were not altered (including CD44, CD54, CD80, CD86 and CD119) by TSA treatment. […] The highest expression (21-fold induction) was achieved on J558 cells after 24 hr by 25 nM TSA. […] The separation of control and IFNγ curves in the CD40, J558 experiment depicted in FIG. 8 represents a mean channel fluorescence difference of only 1.3 and was not seen on independent replicates of the experiment.
TSA has been described as a cell cycle inhibitor that induces both G1 and especially G2/M blocks (Bestor, 1998, Nature, 393:311-312; Yoshida et al., 1988, Exp. Cell Res. 177:122-131). MHC class II, but not class I, has been reported (Inokoshi et al., 1999, Biochem. Biophys. Res. Commun., 256:372-376; Monroe et al., 1983, J. Immunol., 130:626-631) to be regulated differentially during the cell cycle. Therefore the cell cycle of the cell lines used in the present invention was analyzed by DNA staining and flow cytometry with each of the treatment conditions under study. […] Two additional methods were used to analyze cell cycle effects on MHC expression. Since it has been reported that TSA arrests cell cycle mainly in G2/M, and class II has been reported to accumulate in G2/M (Monroe et al., 1983, supra), experiments were designed to essentially arrest 100% of J558 cells in G2/M with nocodazole. […] From the above experiments, it can be concluded that DAIs have specific effects on MHC class I and II, and CD40 gene expression, which is likely not a result of its action on the cell cycle.

cell lines employed = assay: Toxicity of deacetylase inhibitors (lift-off, trypan-blue dye exclusion, laddering, PI/annexin-V flow cytometry); assay type: cell-based; conditions: 1 mM Na-butyrate for 12-48 hr
Description: Two representative DAIs, TSA and NaBu were used for this illustration. […] In some experiments, 100 U/ml γ-IFN was added with and without the deacetylase inhibitor.

HLA-DRα mRNA [2] = assay: HLA-DRα mRNA by standard PCR and real-time PCR in human cell lines JAR and SK-N-MC; assay type: cell-based; conditions: JAR
Description: (§1) To determine the effect of DAIs on HLA-DRα mRNA, cytoplasmic RNA was isolated from untreated and treated human trophoblast cell line JAR using standard techniques (RNeasy System from Qiagen). Standard PCR was performed using primers for DR and CIITA (Murphy et al., 1998, Reprod Dev., Chin et al., 1994, Immunity 1:687-697). Other primers used included human and mouse GAPDH (Clontech) and forward primer 5′-[…]-3′ (SEQ ID NO:25) and reverse primer 5′-[…]-3′ (SEQ ID NO:26) for mouse CIITA. PCR products were amplified with GOLD Taq for 10 min at 95° C., then 95° C. for 30 sec, 60° C. for 60 sec (25-45 cycles), then an extension at 60° C. for 10 min.
(§2) Oligonucleotide primers and TaqMan 5′-6-FAM and 3′-TAMRA-labeled probes were synthesized in the RPCI Biopolymer Facility. Primer and probe sequences are listed under Sequence Listing and also in FIG. 9. Sequences were designed using standard software (PrimerExpress software, PE Biosystems) except for human GAPDH.
(§3) Realtime PCR reactions contained TaqMan Universal PCR Master Mix (PE Biosystems), primers at 300 nM, and probes at optimal concentrations (150-225 nM depending on gene). Reactions were carried out on an ABI PRISM 7700 Sequence Detection System (PE Biosystems). Cycling conditions were 50° C. for 2 min, 95° C. for 10 min, then 60 cycles of 95° C. for 15 sec, 60° C. for 1 min. PCR samples were run in triplicate. The detection system and quantitative PCR was carried out as described by Williamson et al. (1995, Genet Res. 65:83-93). The threshold cycle number CT corresponded to the cycle number, at which the fluorescent emission reaches 10 standard deviations above the mean fluorescent emission, measured during the early ‘baseline’ cycles of the PCR. The CT values for triplicates were averaged and normalized to GAPDH levels. […] Assuming reverse transcription efficiencies were approximately the same for each sample, relative amounts of mRNA using the comparative CT method. Fold changes in mRNA levels were calculated as 2^x where x=the difference between normalized CT values of the control and experimental samples.
To evaluate the effects of DAIs on human cells, the human trophoblast cell line was treated with 100 nM Trichostatin A (TSA), IFNγ (100 U/ml) or a combination of TSA and IFNγ for 12 hours. RNA was isolated and real time quantitative RT-PCR was carried out. The fold increase in mRNA over the control was calculated.

[3] = tested on: class II transactivator (CIITA) mRNA; assay: CIITA mRNA by standard PCR and real-time PCR in human cell lines JAR and SK-N-MC; assay type: cell-based
Description: as §1, §2, §3
[…] RNA was isolated and real time quantitative RT-PCR was carried out. The fold increase in mRNA over the control was calculated.

HLA-DRα mRNA [4] = assay: HLA-DRα mRNA by standard PCR and real-time PCR in human cell lines JAR and SK-N-MC; assay type: cell-based
IAα mRNA = assay: MHC class II (IAα) mRNA by RT-PCR and real-time PCR in mouse tumor models; assay type: cell-based
Description: as §1
(§4) In order to obtain more quantitative information on fold changes in DR and CIITA after treatment with the deacetylase inhibitors, a real time fluorescence technique capable of quantitating low copy numbers of transcripts was carried out as follows. Oligonucleotide primers and TaqMan 5′-6-FAM and 3′-TAMRA-labeled probes were synthesized in the RPCI Biopolymer Facility. Primer and probe sequences are listed under Sequence Listing and also in FIG. 9. Sequences were designed using standard software (PrimerExpress software, PE Biosystems) except for human GAPDH.
(§5) Realtime PCR reactions contained TaqMan Universal PCR Master Mix (PE Biosystems), primers at 300 nM, and probes at optimal concentrations (150-225 nM depending on gene). Reactions were carried out on an ABI PRISM 7700 Sequence Detection System (PE Biosystems). Cycling conditions were 50° C. for 2 min, 95° C. for 10 min, then 60 cycles of 95° C. for 15 sec, 60° C. for 1 min. PCR samples were run in triplicate. The detection system and quantitative PCR was carried out as described by Williamson et al. (1995, Genet Res. 65:83-93). The threshold cycle number CT corresponded to the cycle number, at which the fluorescent emission reaches 10 standard deviations above the mean fluorescent emission, measured during the early ‘baseline’ cycles of the PCR. The CT values for triplicates were averaged and normalized to GAPDH levels. […] In such cases, in order to calculate a minimum fold change for other samples in the same group, the CT value was arbitrarily set at 40. […] Assuming reverse transcription efficiencies were approximately the same for each sample, relative amounts of mRNA using the comparative CT method. Fold changes in mRNA levels were calculated as 2^x where x=the difference between normalized CT values of the control and experimental samples.
(§6) To determine if the effect of DAIs on MHC class II was manifested in other tumors and in different species, the effect of TSA was tested on four commonly used mouse tumor models: the SaI fibrosarcoma, the Colon 26 adenocarcinoma, the J558 plasmacytoma and the P815 mastocytoma. TSA induced class II in all four mouse tumors examined, while the effects of IFNγ were variable (FIG. 4). Data presented for each cell line represents optimal incubation time and concentration of TSA and is compared with 100 U/ml of IFNγ at the same time point. Numbers over bars represents fold changes. […] Colon 26 and J558 that differed strikingly in their reactivity to IFNγ were selected for further evaluation. RT-PCR and real time PCR was used to examine induction of CIITA and IAα by TSA and IFNγ. A20, a constitutively positive B cell line was used as a positive control. The results are shown in FIGS. 5A-D. The numbers over bars represent fold changes. […] Since the classical IFNγ inducible genes IRF-1 and GBP as well as MHC class I mRNA were not induced by IFNγ in J558 (data not shown), this cell line may have a signaling defect in the IFNγ pathway. Unexpectedly however, and unlike either the MC or Colon 26 cells, TSA induced both CIITA (102-fold) and Iα (537-fold) in J558 as shown in FIGS. 5B and 5D.

CIITA mRNA = CIITA mRNA by RT-PCR and real-time PCR in mouse tumor cells Colon 26 and J558; assay type: cell-based
Description: as §1, §4, §5, §6

`COC(=O)Nc1nc2ccc(C(=O)c3cccs3)cc2[nH]1` [Nocodazole, nocodazole] was tested, and the “MHC class II positive cells” value [1] was 23%.

In the case of `CCCC(=O)[O-].[Na+]` [sodium butyrate], the toxicity (cell lines employed) is reported as “non toxic”, the “fold increase in HLA-DRα (MHC class II) mRNA over the control” value (HLA-DRα mRNA [2]; real time quantitative RT-PCR, 100 nM TSA, IFNγ 100 U/ml or combination for 12 hours, sodium butyrate (FIG. 2)) is reported as 12 fold and the “levels of mRNA for DR” value (HLA-DRα mRNA [2]; standard PCR, 100 nM or 250 nM TSA or 1 mM sodium butyrate) is reported as “substantial increase”. The “increase in class II transactivator (CIITA)” value ([3]; JAR, real time PCR, sodium butyrate (FIG. 2)) was “no increase”, the CIITA transcription ([3]; JAR, standard PCR at 35 cycles, 100 nM or 250 nM TSA or 1 mM sodium butyrate) was “undetectable” and the “CIITA mRNA fold change” value ([3]; MC cells, real time PCR up to 60 cycles, 100 nM TSA 24 hr, NaBu 1 mM 48 hr, IFNγ) was “no activation”. For the same molecule, the CIITA transcription ([3]; SK-N-MC, routine RT-PCR at 35 cycles, 100 nM TSA 24 hours, 1 mM NaBu 48 hours, IFNγ) was “undetectable”, the “fold increase in expression of DR” value (HLA-DRα mRNA [4]; MC cells, real time PCR, 100 nM TSA 24 hr, NaBu 1 mM 48 hr, IFNγ any concentration or time point) was 88 fold and the “levels of mRNA for HLA-DRα (DR)” value (HLA-DRα mRNA [4]; SK-N-MC, RT-PCR, 100 nM TSA 24 hours, 1 mM NaBu 48 hours, IFNγ) was “substantial increase”.

B1: IFNγ: gamma-interferon, cytokine used as comparator at 100 U/ml (protein, UniProt P01579 24-161, looked up)
Interferon gamma: QDPYVKEAENLKKYFNAGHSDVADNGTLFLGILKNWKEESDRKIMQSQIVSFYFKLFKNFKDDQSIQKSVETIKEDMNVKFFNSNKKKRDDFEKLTNYSVTDLNVQRKAIHELIQVMAELSPAAKTGKRKRSQMLFRG
With B1 the “Iα (class II) fold induction” value (IAα mRNA) was “did not activate” and the CIITA fold induction (CIITA mRNA) was “did not activate”.
